Experimental data from patent publication US20170368134A1, “PROTEASOME INHIBITORS FOR TREATING A DISORDER RELATED TO AN ACCUMULATION OF NON-DEGRADED ABNORMAL PROTEIN OR A CANCER” (UNIVERSITÉ D'AIX-MARSEILLE, priority 2015, published 2017).
Peptide text beside a SMILES is read from it. * marks the point of attachment. Cbz = O=C(OCc1ccccc1)*

How the values were obtained:
[1] = test system: HGPS fibroblasts, HGPS derived iPS-MSC or iPS-VSMC; assay: CellTiter-Glo Luminescent Cell Viability Assay; type: cell-based, human; conditions: 24 h, doses used in this study
Method: HGPS fibroblasts, HGPS derived iPS-MSC or iPS-VSMC viability was measured at 24 h post treatment with MG132 at the indicated concentrations using CellTiter-Glo Luminescent Cell Viability Assay. Results are reported as viability percentage of MG132-treated cells relative to untreated cells.

lamin C = assay: Intramuscular MG132 in Lmna G609G/G609G mice, lamin C in gastrocnemius muscle; type: in vivo, mouse
Method: (A) Lamin A, progerin, lamin C and SRSF-1 specific bands, corresponding to DMSO-treated left muscle (−) and 1 μg/Kg MG132-treated right muscle (+), were quantified by ImageJ software and their expression levels were normalized to GAPDH values.
(§1) Knock-in mouse model (Lmna^G609G/G609G) carrying the c.1827C>T (p.Gly609Gly) mutation in the endogenous Lmna gene, corresponding to the human HGPS mutation c.1824C>T (p.Gly609Gly) have been described previously (31). MG132 (1 or 10 μg/Kg body weight) was injected under isoflurane anesthesia into the right gastrocnemius muscle of […] homozygous knock-in mice (Lmna^G609G/G609G) 3 times per week for 2 weeks. Contralateral muscle served as control (DMSO). MG132 was dissolved in dimethyl sulfoxide (DMSO) and then diluted in 100 μl sterile phosphate-buffered saline (PBS) for intramuscular injection. […] Animal experiments have been carried out in compliance with the European guidelines for the care and use of laboratory animals (EU directive 2010/63/EU) and in accordance with the recommendations provided by the guide for the care and use of the laboratory animals of the French national Institute for Health and Medical Research (INSERM) and the ethical committee of Aix-Marseille University.

[2] = Tolerability of intramuscular MG132 in Lmna G609G/G609G mice; type: in vivo, mouse; conditions: 1 or 10 μg/Kg intramuscular
Method: as §1

CC(C)C[C@@H](C=O)NC(=O)[C@H](CC(C)C)NC(=O)[C@H](CC(C)C)NC(=O)OCc1ccccc1 [MG132, Z-Leu-Leu-Leu-al] (Cbz-Leu-Leu-Leu-aldehyde)
viability / mortality [1]: do not induce significant mortality | lamin C level in treated muscle (lamin C; 1 μg/Kg intramuscular, change not significant): decrease of lamin C | lamin C level in treated muscle (lamin C; 10 μg/kg body weight intramuscular): decrease in lamin C | apparent damage or stress responses [2]: Neither vehicle alone nor MG132 treatment produced any apparent damage or stress responses
